Laboratory results published in patent US20120172438A1, “GLYCYRRHETINIC ACID ESTER DERIVATIVE SYNTHESIS METHOD AND DEOXOGLYCYRRHETINIC ACID ESTER COMPOUND” (priority 2009, published 2012).
Marks after values point to notes of the source that are not given here.

Tests used:
[1] = system: BCG + LPS induced liver injury; assay: BCG+LPS induced liver injury in mice; assay type: in vivo, Kunming mice; settings: for ALT / AST: 7 days
[2] = system: acetaminophen induced liver injury; assay: Acetaminophen induced liver injury in mice; assay type: in vivo; settings: for ALT / AST: 10 days
Description: Ethyl 11-deoxy-18α-glycyrrhetinate: provided by traditional Chinese medicine laboratory, R&D center of Jiangsu Chia Tai Tianqing Pharmaceutical Co., Ltd. Bifendate pills: produced by Beijing Union Pharmaceutical factory. Daily dosage of human is 45 mg, used as the positive control medicine. Acetaminophen: produced by Jinzhou biochemical pharmaceutical factory. All medicines were prepared to desired concentrations with physiological saline according to the requirement of experiment. AST, ALT Kit: product of Nanjing Jiancheng bioengineering research institute.
60 mice were randomly divided into 6 groups: the normal control group, Bifendate group (positive medicine group), model control group, various doses of ethyl 11-deoxy-18α-glycyrrhetinate groups (240, 120, 60 mg/kg). After the animals were adaptively fed for 3 days, animals in each group were administered the medicines by gastric infusion for 10 days (one time/day). Animals in the normal control group and model group were administered 0.2 ml/mouse of physiological saline. 6 hours after the last administration, animals in each group, except the animals in normal control group, were intraperitoneally injected 400 mg kg-1 acetaminophen. After 12 hours, blood was taken by orbital bleeding. Activities of alanine aminotransferase (ALT), aspartate aminotransferase (AST) were measured. And T test of groups was performed, see table 7;

[3] = system: TAA induced acute liver injury; assay: TAA induced acute liver injury mouse model; assay type: in vivo, ICR male mice; set-up: Average grade of hepatocyte necrosis: scale not given here; settings: for Grade of hepatocyte necrosis 0 (number of mice) / Grade of hepatocyte necrosis 1 (number of mice) / Grade of hepatocyte necrosis 2 (number of mice) / Grade of hepatocyte necrosis 3 (number of mice) / Grade of hepatocyte necrosis 4 (number of mice): N=10
Description: 50 ICR male mice were randomly divided into 5 groups of 10 mice in each group: the model group, diammonium glycyrrhizinate group (240 mg/kg), high dose of ethyl 11-deoxy-18α-glycyrrhetinate group (240 mg/kg), middle dose of ethyl 11-deoxy-18α-glycyrrhetinate group (120 mg/kg), and low dose of ethyl 11-deoxy-18α-glycyrrhetinate group (60 mg/kg). The mice in model group were administered equal amount of 0.5% CMC-Na by IG.

[4] = system: carrageenan-induced rat paw edema; assay: Carrageenan-induced rat paw swelling; assay type: in vivo, male SD rats
Description: Rat paw edema was induced by injecting carrageenan, and we observed the swelling to evaluate the anti-inflammatory effect. Wherein:
• Animals: male SD rats, 150-180 g; • Inflammatory Agent: carrageenan; • Test Medicine: ethyl 11-deoxy-18α-glycyrrhetinate was dissolved in 1% CMC-Na to get the desired concentration; • Positive Control Medicine: indomethacin was dissolved in 1% CMC-Na to get the desired concentration;
50 rats were randomly divided into 5 groups of 10 rats in each group: the model group, positive control group (administering indomethacin 10 mg/kg), various doses of the test medicine groups (30, 60, 120 mg/kg). The animals in each group were administered continuously for 3 days. Before the last administration, the volumes of the left hind feet of the rats were measured by micropipette method. Then the animals were administered the test medicines or CMC-Na by gastric infusion. 1 hour later, freshly prepared carrageenan was injected subcutaneously into left hind feet of the rats according to the dosage of 0.05 ml/paw by using a 0.25 ml syringe and NO. 4 needle. The volume of left hind feet of the rats was measured by the method mentioned above at time points of 1, 3, 4, 5 and 7 hours after administration, each point 2 times, and the average values were calculated. The difference of these values between before and after inflammation was called swelling degree.
Data was presented as x±s. T test of the average of two samples was used to compare the experimental data of each group. P<0.05 or P<0.01 was regarded to be statistically significant.

[5] = system: D-Galn induced acute liver injury; assay: D-Galn induced acute liver injury mouse model; assay type: in vivo, ICR male mice
Description: 1. Comparison of therapeutic effects of ethyl 11-deoxy-18α-glycyrrhetinate and compound glycyrrhizin injection on ICR male mouse models of the D-Galn induced acute liver injury
Methods: 60 ICR male mice were randomly divided into 6 groups of 10 mice in each group: the model group, compound glycyrrhizin injection group (60 mg/kg), compound glycyrrhizin gastric infusion group (240 mg /kg), high dose of ethyl 11-deoxy-18α-glycyrrhetinate group (240 mg/kg), middle dose of ethyl 11-deoxy-18α-glycyrrhetinate group (120 mg/kg), low dose of ethyl 11-deoxy-18α-glycyrrhetinate group (60 mg/kg). […] The mice in model group were administered equal amount of 0.5% CMC-Na by gastric infusion.

[6] = Table 1 experiment, 60 mg/kg IG, daily for 6 days
[7] = Table 1 experiment, 120 mg/kg IG, daily for 6 days
[8] = Table 1 experiment, 240 mg/kg IG, daily for 6 days
[9] = Table 2 experiment, 60 mg/kg IG, 7 days
[10] = Table 2 experiment, 120 mg/kg IG, 7 days
[11] = Table 2 experiment, 240 mg/kg IG, 7 days

## CCOC(=O)C1(C)CCC2(C)CCC3(C)C(=CCC4C5(C)CCC(O)C(C)(C)C5CCC43C)C2C1 (stereo not drawn) [Ethyl 11-deoxy-18α-glycyrrhetinate, ethyl 11-deoxy-18α-glycyrrhetinate]
[1]; 60 mg/kg gastric infusion
  ALT: 105.3 ± 18.61 U/L
  AST: 227.2 ± 59.7 U/L
[1]; 120 mg/kg gastric infusion
  ALT: 108.7 ± 20.0 U/L
  AST: 190.1 ± 43.3 U/L
[1]; 240 mg/kg gastric infusion
  ALT: 89.4 ± 13.2 U/L
  AST: 169.3 ± 38.4 U/L
[1]; mouse, in vivo
  Protection of liver and reduction of enzyme activity (in words): has good activity of protecting liver and reducing enzyme activity
[2]; 60 mg/kg gastric infusion
  ALT: 172.0 ± 39.8 U/L
  AST: 203.5 ± 55.4 U/L
[2]; 120 mg/kg gastric infusion
  ALT: 133.3 ± 28.7 U/L
  AST: 158.1 ± 46.9 U/L
[2]; 240 mg/kg gastric infusion
  ALT: 119.4 ± 15.2 U/L
  AST: 122.3 ± 28.0 U/L
[2]; mouse, in vivo
  Reduction of AST, ALT and protection against hepatocyte injury (in words): can reduce AST, ALT, and effectively protect against the acetaminophen induced hepatocyte injury
[3]; 60 mg/kg IG
  ALT: 1177 ± 701 U/ml
  ALT Inhibition %: 48%
  AST: 940 ± 582 U/ml
  AST Inhibition %: 45%
  Average grade of hepatocyte necrosis: 1.4*
  Grade of hepatocyte necrosis 0 (number of mice): 1
  Grade of hepatocyte necrosis 1 (number of mice): 4
  Grade of hepatocyte necrosis 2 (number of mice): 5
  Grade of hepatocyte necrosis 3 (number of mice): 0
  Grade of hepatocyte necrosis 4 (number of mice): 0
[3]; 120 mg/kg IG
  ALT: 1117 ± 707 U/ml
  ALT Inhibition %: 51%
  AST: 823 ± 530 U/ml
  AST Inhibition %: 52%
  Average grade of hepatocyte necrosis: 1.3**
  Grade of hepatocyte necrosis 0 (number of mice): 1
  Grade of hepatocyte necrosis 1 (number of mice): 5
  Grade of hepatocyte necrosis 2 (number of mice): 4
  Grade of hepatocyte necrosis 3 (number of mice): 0
  Grade of hepatocyte necrosis 4 (number of mice): 0
[3]; 240 mg/kg IG
  ALT: 992 ± 558 U/ml
  ALT Inhibition %: 56%
  AST: 738 ± 258 U/ml
  AST Inhibition %: 57%
  Average grade of hepatocyte necrosis: 1.2**
  Grade of hepatocyte necrosis 0 (number of mice): 1
  Grade of hepatocyte necrosis 1 (number of mice): 6
  Grade of hepatocyte necrosis 2 (number of mice): 3
  Grade of hepatocyte necrosis 3 (number of mice): 0
  Grade of hepatocyte necrosis 4 (number of mice): 0
[4]; 30 mg/kg gastric infusion, 1 h
  Swelling degree of the feet after inflammation: 0.20 ± 0.10 mL
[4]; 30 mg/kg gastric infusion, 3 h
  Swelling degree of the feet after inflammation: 0.27 ± 0.10 mL
[4]; 30 mg/kg gastric infusion, 4 h
  Swelling degree of the feet after inflammation: 0.33 ± 0.11 mL
[4]; 30 mg/kg gastric infusion, 5 h
  Swelling degree of the feet after inflammation: 0.39 ± 0.11 mL
[4]; 30 mg/kg gastric infusion, 7 h
  Swelling degree of the feet after inflammation: 0.27 ± 0.12 mL
[4]; 60 mg/kg gastric infusion, 1 h
  Swelling degree of the feet after inflammation: 0.17 ± 0.08 mL
[4]; 60 mg/kg gastric infusion, 3 h
  Swelling degree of the feet after inflammation: 0.29 ± 0.15 mL
[4]; 60 mg/kg gastric infusion, 4 h
  Swelling degree of the feet after inflammation: 0.37 ± 0.11 mL
[4]; 60 mg/kg gastric infusion, 5 h
  Swelling degree of the feet after inflammation: 0.37 ± 0.07 mL
[4]; 60 mg/kg gastric infusion, 7 h
  Swelling degree of the feet after inflammation: 0.29 ± 0.09 mL
[4]; 120 mg/kg gastric infusion, 1 h
  Swelling degree of the feet after inflammation: 0.20 ± 0.05 mL
[4]; 120 mg/kg gastric infusion, 3 h
  Swelling degree of the feet after inflammation: 0.32 ± 0.11 mL
[4]; 120 mg/kg gastric infusion, 4 h
  Swelling degree of the feet after inflammation: 0.34 ± 0.09 mL
[4]; 120 mg/kg gastric infusion, 5 h
  Swelling degree of the feet after inflammation: 0.42 ± 0.12 mL
[4]; 120 mg/kg gastric infusion, 7 h
  Swelling degree of the feet after inflammation: 0.28 ± 0.09 mL
[4]; 30, 60, 120 mg/kg
  Inhibition of carrageenan-induced swelling of the rat feet (in words): began to inhibit the swelling of the rat feet induced by carrageenan after 4 hours
[5]; [6]
  ALT: 833 ± 564 U/ml
  ALT Inhibition %: 60%
  AST: 777 ± 533 U/ml
  AST Inhibition %: 60%
[5]; [7]
  ALT: 474 ± 345 U/ml
  ALT Inhibition %: 77%
  AST: 414 ± 340 U/ml
  AST Inhibition %: 79%
[5]; [8]
  ALT: 311 ± 256 U/ml
  ALT Inhibition %: 85%
  AST: 317 ± 214 U/ml
  AST Inhibition %: 84%
[5]; [9]
  ALT: 767 ± 739 U/ml
  ALT Inhibition %: 61%
  AST: 353 ± 256 U/ml
  AST Inhibition %: 69%
[5]; [10]
  ALT: 452 ± 432 U/ml
  ALT Inhibition %: 77%
  AST: 292 ± 215 U/ml
  AST Inhibition %: 74%
[5]; [11]
  ALT: 372 ± 440 U/ml
  ALT Inhibition %: 81%
  AST: 266 ± 192 U/ml
  AST Inhibition %: 77%

## COc1ccc2c(c1)c(CC(=O)O)c(C)n2C(=O)c1ccc(Cl)cc1 [Indomethacin, indomethacin, reference compound]
[4]; 10 mg/kg gastric infusion, 1 h
  Swelling degree of the feet after inflammation: 0.13 ± 0.05 mL
[4]; 10 mg/kg gastric infusion, 3 h
  Swelling degree of the feet after inflammation: 0.17 ± 0.07 mL
[4]; 10 mg/kg gastric infusion, 4 h
  Swelling degree of the feet after inflammation: 0.24 ± 0.09 mL
[4]; 10 mg/kg gastric infusion, 5 h
  Swelling degree of the feet after inflammation: 0.22 ± 0.06 mL
[4]; 10 mg/kg gastric infusion, 7 h
  Swelling degree of the feet after inflammation: 0.16 ± 0.05 mL
